Several values for one entry are separate records, joined by “and”; a condition that tells them apart may be missing. Equal values may be shown once. Read-outs that look alike come from different tables or passages of the source.
Experiments:
[1] = tested on: BCRP; parameters: method as in Sjöstedt et al., 2016; conditions: ref Sjöstedt et al., 2016; cited from earlier work
[2] = biological target: α-glucosidase; parameters: method as in Milella et al., 2016; conditions: versus acarbose, a well-known α-glucosidase inhibitor; ref Milella et al., 2016; cited from earlier work
[3] = parameters: method as in Wang H. et al., 2016; conditions: rats; after oral administration of fraxin 50 mg/kg; ref Wang H. et al., 2016; cited from earlier work
[4] = tested on: HeLa1A9 cells; experiment: Toxicity toward HeLa1A9 cells during excretion experiments; assay type: cell-based, human; conditions: within the experimental concentration range
[5] = biological target: T1, MRP1 (Homo sapiens, UniProt P33527); experiment: shRNA-mediated partial silencing of MRP1 in HeLa1A9 cells, glucuronide excretion; assay type: cell-based; conditions: fraxetin 10 μM
T1 construct: BCRP, MRP1, MRP3, and MRP4 were detected in both wild-type HeLa and HeLa1A9 cells; endogenous in cells
Experimental: (§1) The HeLa1A9 cells were pretreated and incubated with fraxetin solutions as reported previously ([Jiang et al., 2011]). Before assays, the HeLa1A9 cells were washed twice with prewarmed (37°C) Hank’s balanced salt solution (HBSS; pH = 7.4). After that, fraxetin (10 μM) dissolved in 2 mL of HBSS was incubated with the HeLa1A9 cells. At each time point (30, 60, 90, and 120 min), 200 μL of the culture supernatant from each well was collected as samples, and an equal volume of a loading media was used to replenish each well. Next, the collected samples were each mixed with 100 μL ice-cold acetonitrile. The supernatants were subjected to UHPLC analysis after centrifugation (10 min at 13800 × g).
(§2) In glucuronide excretion assays, biological inhibition mainly including shRNA-mediated partial silencing of BCRP and MRPs in HeLa cells was usually performed to evaluate the role of each efflux transporter ([Quan et al., 2015]; [Sun et al., 2015]; [Qin et al., 2018a]). Established shRNA_BCRP, shRNA_MRP1, shRNA_MRP3, and shRNA_MRP4 plasmids were transiently transfected into HeLa1A9 cells to develop the stably shRNA-transfected cell lines, named HeLa1A9-BCRP-shRNA cells, HeLa1A9-MRP1-shRNA, HeLa1A9-MRP3-shRNA, and HeLa1A9-MRP4-shRNA cells, respectively. […]
(§3) In addition, the excretion rate of intracellular glucuronides was calculated using Equ. […]

[6] = tested on: MRP2; parameters: method as in Sjöstedt et al., 2016; conditions: ref Sjöstedt et al., 2016; cited from earlier work
[7] = tested on: cystathionine β-synthase; parameters: method as in Thorson et al., 2013; conditions: cystathionine β-synthase inhibitor; ref Thorson et al., 2013; cited from earlier work
[8] = tested on: UDP-glucuronosyltransferase 1A9 (UGT1A9); parameters: method as in Xia et al., 2014; conditions: ref Xia et al., 2014, cited from earlier work
[9] = biological target: T2, BCRP (Homo sapiens, UniProt Q9UNQ0); experiment: shRNA-mediated partial silencing of BCRP in HeLa1A9 cells, glucuronide excretion; assay type: cell-based; conditions: fraxetin 10 μM
T2 construct: BCRP, MRP1, MRP3, and MRP4 were detected in both wild-type HeLa and HeLa1A9 cells; endogenous in cells; host or cells: HeLa1A9 cells
T2 sequence (Q9UNQ0 1-655): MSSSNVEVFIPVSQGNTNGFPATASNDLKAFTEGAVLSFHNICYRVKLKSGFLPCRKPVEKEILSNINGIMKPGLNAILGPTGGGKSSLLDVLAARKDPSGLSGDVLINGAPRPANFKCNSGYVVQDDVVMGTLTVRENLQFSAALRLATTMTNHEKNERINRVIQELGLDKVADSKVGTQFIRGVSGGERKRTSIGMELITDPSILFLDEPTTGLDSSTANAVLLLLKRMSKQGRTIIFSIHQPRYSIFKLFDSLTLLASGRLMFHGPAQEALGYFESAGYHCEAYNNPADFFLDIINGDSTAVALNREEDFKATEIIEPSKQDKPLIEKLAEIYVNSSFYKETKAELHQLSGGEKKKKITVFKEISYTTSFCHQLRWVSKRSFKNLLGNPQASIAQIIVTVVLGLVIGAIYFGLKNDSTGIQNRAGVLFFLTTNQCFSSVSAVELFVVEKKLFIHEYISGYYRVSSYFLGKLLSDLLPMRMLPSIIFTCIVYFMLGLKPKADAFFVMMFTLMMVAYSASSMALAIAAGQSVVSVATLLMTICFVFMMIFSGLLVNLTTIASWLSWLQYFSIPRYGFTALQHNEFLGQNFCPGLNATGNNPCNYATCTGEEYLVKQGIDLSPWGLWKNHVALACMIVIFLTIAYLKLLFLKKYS
Experimental: as §1, §2, §3

[10] = biological target: T3, HeLa1A9 cell lysate (Homo sapiens, UniProt O60656); experiment: Glucuronidation kinetics by HeLa1A9 cell lysate; assay type: in vitro ADME; conditions: metabolite propofol-G
T3 sequence (O60656 26-530): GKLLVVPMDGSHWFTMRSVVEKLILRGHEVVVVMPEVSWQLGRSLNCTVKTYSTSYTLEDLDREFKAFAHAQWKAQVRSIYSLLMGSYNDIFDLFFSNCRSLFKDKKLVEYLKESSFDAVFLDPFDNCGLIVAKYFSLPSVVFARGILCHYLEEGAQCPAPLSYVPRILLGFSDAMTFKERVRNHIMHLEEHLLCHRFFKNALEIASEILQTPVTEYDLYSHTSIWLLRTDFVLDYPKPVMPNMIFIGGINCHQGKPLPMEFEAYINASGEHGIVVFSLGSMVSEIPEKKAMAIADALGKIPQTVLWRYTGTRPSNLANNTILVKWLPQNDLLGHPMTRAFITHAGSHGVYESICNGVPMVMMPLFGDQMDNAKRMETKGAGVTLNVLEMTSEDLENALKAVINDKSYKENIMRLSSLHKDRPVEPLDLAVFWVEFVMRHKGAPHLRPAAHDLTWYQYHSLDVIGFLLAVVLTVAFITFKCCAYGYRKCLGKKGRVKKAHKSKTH
Experimental: The incubation system was slightly modified on the basis of a previously published article ([Qin et al., 2018a]). […] After preincubation at 37°C for 5 min, UDPGA (3.5 mM) was added to the reaction system, and the mixture was incubated for another 30 min. These reactions were terminated by the addition of an equal volume of ice-cold acetonitrile. The mixed samples were centrifuged at 13800 × g for 10 min, and the supernatant was analyzed by ultra-high-performance liquid chromatography (UHPLC). All the experiments were conducted in triplicate.
The enzyme kinetic parameters were obtained by fitting appropriate kinetic models to the experimental data in GraphPad Prism V5 software (San Diego, CA, United States). The best model was selected based on visual inspection of the Eadie–Hofstee plots ([Qin et al., 2018b]). In brief, if the Eadie–Hofstee plot was linear, formation rates (V) of glucuronides at different substrate concentrations (C) were fitted to the standard equations (1): […]
Where Km is the Michaelis–Menten constant, and Vmax is the maximum rate of glucuronidation. The intrinsic clearance (CLint) was computed as Vmax/Km.

T1 sequence (P33527 whole entry): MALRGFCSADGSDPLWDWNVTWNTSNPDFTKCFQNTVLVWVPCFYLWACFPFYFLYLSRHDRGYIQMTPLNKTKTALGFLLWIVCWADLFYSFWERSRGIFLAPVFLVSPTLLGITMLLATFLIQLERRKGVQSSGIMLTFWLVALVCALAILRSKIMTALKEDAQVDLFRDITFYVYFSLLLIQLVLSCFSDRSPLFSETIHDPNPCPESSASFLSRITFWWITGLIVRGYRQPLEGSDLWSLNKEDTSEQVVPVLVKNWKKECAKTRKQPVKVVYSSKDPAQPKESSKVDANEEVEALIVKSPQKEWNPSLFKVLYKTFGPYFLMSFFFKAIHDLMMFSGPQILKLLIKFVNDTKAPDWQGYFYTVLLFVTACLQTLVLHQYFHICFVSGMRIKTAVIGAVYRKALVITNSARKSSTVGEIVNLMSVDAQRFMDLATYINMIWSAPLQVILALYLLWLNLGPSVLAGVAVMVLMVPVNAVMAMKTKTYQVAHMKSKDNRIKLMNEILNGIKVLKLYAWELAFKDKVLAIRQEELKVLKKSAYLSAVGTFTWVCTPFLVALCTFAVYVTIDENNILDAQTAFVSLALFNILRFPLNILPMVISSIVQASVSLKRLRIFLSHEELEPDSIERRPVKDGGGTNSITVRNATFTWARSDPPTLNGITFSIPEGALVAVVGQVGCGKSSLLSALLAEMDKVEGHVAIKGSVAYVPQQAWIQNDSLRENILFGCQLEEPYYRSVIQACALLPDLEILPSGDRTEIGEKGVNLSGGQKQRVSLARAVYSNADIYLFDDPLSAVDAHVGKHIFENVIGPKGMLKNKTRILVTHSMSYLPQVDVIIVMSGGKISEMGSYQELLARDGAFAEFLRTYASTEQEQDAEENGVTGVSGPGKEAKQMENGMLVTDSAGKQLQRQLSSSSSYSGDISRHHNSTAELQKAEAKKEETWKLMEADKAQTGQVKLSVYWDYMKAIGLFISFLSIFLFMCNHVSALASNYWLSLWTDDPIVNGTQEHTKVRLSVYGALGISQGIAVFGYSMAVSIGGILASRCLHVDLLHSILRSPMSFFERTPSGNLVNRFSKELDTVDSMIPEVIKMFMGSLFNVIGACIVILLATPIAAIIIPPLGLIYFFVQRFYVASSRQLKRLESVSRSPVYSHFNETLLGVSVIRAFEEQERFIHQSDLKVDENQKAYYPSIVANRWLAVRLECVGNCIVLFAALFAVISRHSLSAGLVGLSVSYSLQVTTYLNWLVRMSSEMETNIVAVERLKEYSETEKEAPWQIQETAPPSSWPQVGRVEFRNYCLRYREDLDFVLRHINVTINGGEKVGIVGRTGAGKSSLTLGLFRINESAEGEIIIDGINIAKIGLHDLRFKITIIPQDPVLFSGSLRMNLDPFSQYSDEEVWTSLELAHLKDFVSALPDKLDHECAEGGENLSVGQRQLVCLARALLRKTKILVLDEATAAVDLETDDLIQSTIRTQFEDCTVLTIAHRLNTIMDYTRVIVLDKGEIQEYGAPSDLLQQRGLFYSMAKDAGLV

SMILES	inhibitory action on transporter [1]	half-maximal inhibitory concentration (IC50) compared with acarbose [2]	half-life [3]	maximal plasma concentration [3]	toxicity toward HeLa1A9 cells [4]	changes in excretion rates, intracellular glucuronides and fmet values [5]	inhibitory action on transporter [6]	IC50 [7]	CLint ([8]; formation of fraxetin-7-O-glucuronide by UGT1A9)	CLint ([8]; formation of fraxetin-8-O-glucuronide by UGT1A9)	changes in excretion rates, intracellular glucuronides and fmet values [9]	Vmax [10]
COc1cc2ccc(=O)oc2c(O)c1O [fraxetin]	absence of an inhibitory action	significantly lower	11 h	2250 ng/mL and ~11 μM	no significant toxicity	did not cause any changes	absence of an inhibitory action	134 µM	42 μL/min per milligram of protein	300 μL/min per milligram of protein	did not cause any changes	–
CC(C)c1cccc(C(C)C)c1O [propofol]	–	–	–	–	–	–	–	–	–	–	–	3.2 ± 0.2 (^aaa) pmol/min/mg
